One data set concerns viruses. As to conditions: cited from earlier work.
For another data set, the system named is normal cells. The conditions noted are these: cited from earlier work.

For `O=C([O-])CC([O-])(CC(=O)[O-])C(=O)[O-].[Cu+2].[Na+].[Na+]` [MCC, disodium monocopper (II) citrate dihydrate], the anti-inflammatory performance result with inflammatory processes is recorded as “demonstrated utility on relieving inflammatory processes”.
Regarding `CC(=O)[O-].CC(=O)[O-].[Zn+2]` [zinc acetate], the anti-viral activity result with viruses is “very toxic to viruses”. In the data set with normal cells, the “toxicity to normal cells” value is on record as “quite toxic to normal cells”.

(Values after US20060089407A1, “Methods for Making and Using Synergistic Multifunctional Compositions” (NATIONAL RESEARCH LABORATORIES, LTD., priority 2004, published 2006).)
